Laboratory results reported in US20230279021A1, “POLYMORPHS OF A GABAA ALPHA5 AGONIST AND METHODS OF USING IN THE TREATMENT OF COGNITIVE IMPAIRMENT” (AGENEBIO, INC., priority 2020, published 2023).
“Also recorded” adds a separate entry of the source.

Assays:
[1] = Thermal decomposition by DSC; format: physicochemical; details: 10° C./min
Method: DSC was performed using a Mettler-Toledo DSC3+ differential scanning calorimeter. A tau lag adjustment is performed with indium, tin, and zinc. The temperature and enthalpy are adjusted with octane, phenyl salicylate, indium, tin and zinc. The adjustment is then verified with octane, phenyl salicylate, indium, tin, and zinc. The sample was placed into a hermetically sealed aluminum DSC pan, the weight was accurately recorded, and the sample was inserted into the DSC cell. A weighed aluminum pan configured as the sample pan was placed on the reference side of the cell. The pan lid was pierced prior to sample analysis. The samples were analyzed from −25° C. to 250° C. at 10° C./min.

[2] = Solid-state stability of crystalline forms on storage or heating (XRPD); format: physicochemical
Method: XRPD patterns were collected with a PANalytical X'Pert PRO MPD or a PANalytical Empyrean diffractometer using an incident beam of Cu radiation produced using an Optix long, fine-focus source. An elliptically graded multilayer mirror was used to focus Cu Kα X-rays through the specimen and onto the detector. Prior to the analysis, a silicon specimen (NIST SRM 640e) was analyzed to verify the observed position of the Si 111 peak is consistent with the NIST-certified position. A specimen of the sample was sandwiched between 3-μm-thick films and analyzed in transmission geometry. A beam-stop, short antiscatter extension, and antiscatter knife edge were used to minimize the background generated by air. Soller slits for the incident and diffracted beams were used to minimize broadening from axial divergence. Diffraction patterns were collected using a scanning position-sensitive detector (X'Celerator) located 240 mm from the specimen and Data Collector software v. 5.5. […] All images have the instrument labeled as X'Pert PRO MPD regardless of the instrument used.

[3] = Competitive interconversion slurry experiments (relative thermodynamic stability of crystalline forms); format: physicochemical; details: solvent-mediated interconversion slurries, ambient temperature (Form E also 55° C. and 77° C.)
Method: Interconversion experiments were performed to identify the most thermodynamically stable anhydrous form of Compound 1 (Table 9). […] The choice of solvent affects the kinetics of polymorph conversion and not the thermodynamic relationship between polymorphic forms.
Various combinations of Forms B, E, F, and Material D were slurried with Form A at ambient and elevated temperatures (for experiments involving Form E). Different solvent systems were used and included a variety of water activities. Saturated solutions were generated and then added to the mixtures composed of approximately equivalent quantities of the forms. The mixtures were slurried for a particular duration of time and the solids harvested and analyzed by XRPD.

[4] = pKa of Compound 1 free base; format: physicochemical
[5] = test system: aged-impaired rats; assay: Radial Arm Maze behavioral task, acute PO treatment; format: in vivo, Long-Evans rats; details: 10 mg/kg PO, 5-hr retention delay, compared to vehicle control
Method: (§1) Aged, male Long-Evans rats were obtained at 9 months of age from Charles River Laboratories (Raleigh, N.C.) and housed in a vivarium at The Johns Hopkins University until background behavioral assessment in a water maze at 24 months of age. Young rats obtained from the same source were housed in the same vivarium and were included in the background assessment at 6 months of age but were not used for drug testing in a radial arm maze task. All rats were individually housed at 25° C. and maintained on a 12 h light/dark cycle. Food and water were provided ad libitum unless noted otherwise. The rats were examined for health and pathogen-free status throughout the experiments, as well as necropsies at the time of killing. All procedures were in accordance with NIH guidelines using protocols approved by the Institutional Animal Care and Use Committee at The Johns Hopkins University.
All rats were screened in a standardized assessment of spatial cognition before the commencement of drug studies. The background assessment used a well-established Morris water maze protocol as described in detail elsewhere (Gallagher et al, 1993). Briefly, the rats were trained for 8 days (three trials per day) to locate a camouflaged escape platform that remained at the same location throughout training in a water maze. […]

[6] = test system: aged-impaired rats; assay: Morris Water Maze behavioral task, acute and chronic IP treatment; format: in vivo, Long-Evans rats; details: 10 mg/kg IP, compared to vehicle control
Method: as §1
All rats were screened in a standardized assessment of spatial cognition before the commencement of drug studies. […]
Rats were trained and tested in a novel water maze environment to assess the effect of the treatments. […] An hour after the last training trial, rats were given a probe test in the absence of the escape platform (free swim) to assess the memory of the platform location as measured by time spent searching at the target location. […]

[7] = Dynamic vapor sorption (DVS) hygroscopicity; format: physicochemical; details: for hygroscopicity (DVS isotherm): 5% to 95% RH; for form of material recovered from the DVS experiment by XRPD: post DVS
Method: Dynamic vapor sorption data was collected on a Surface Measurement System DVS Intrinsic instrument. The samples were not dried prior to analysis. Sorption and desorption data were collected over a range from 5% to 95% RH in 10% RH increments under a nitrogen purge. The equilibrium criteria used for the analyses were 0.001 dm/dt weight change in 5 minutes with a minimum step time of 30 minutes and maximum equilibration time of 180 minutes with a 3-minute data logging interval. Data were not corrected for the initial moisture content of the sample. The samples were identified as having low, limited or significant hygroscopicity based on the definitions in the below table.

COCc1nnc2n1Cc1c(C#Cc3cnc(OC)s3)ncn1-c1ccc(Cl)cc1-2 [Form C]
DSC exotherm due to decomposition, onset [1]: 190 °C | stability under ambient conditions ([2]; 9 weeks under ambient conditions): unchanged | stability upon overnight exposure to 80° C. ([2]; overnight exposure to 80° C.): desolvate to Form B

COCc1nnc2n1Cc1c(C#Cc3cnc(OC)s3)ncn1-c1ccc(Cl)cc1-2 [Material D]
relative thermodynamic stability [3]: metastable relative to Form A | DSC exotherm due to decomposition, onset [1]: ~174 °C | stability on ambient storage (XRPD) ([2]; 7 weeks of ambient storage, mixture with Form A): still remained

COCc1nnc2n1Cc1c(C#Cc3cnc(OC)s3)ncn1-c1ccc(Cl)cc1-2 [Compound 1, 5-((3-chloro-7-(methoxymethyl)-9H-benzo[f]imidazo[1,5-a][1,2,4]triazolo[4,3-d][1,4]diazepin-10-yl)ethynyl)-2-methoxythiazole]
pKa [4]: 1.16 ± 0.04 | number of errors in radial arm maze retention test [5]: fewer errors | time spent in target quadrant of the Morris Water Maze [6]: more time in the target quadrant

COCc1nnc2n1Cc1c(C#Cc3cnc(OC)s3)ncn1-c1ccc(Cl)cc1-2 [Form A]
relative thermodynamic stability [3]: more thermodynamically stable than Form B and Material D at ambient temperature and more thermodynamically stable than Form E at ambient temperature, 55° C., and 77 °C | hygroscopicity (DVS isotherm) [7]: limited hygroscopicity; also recorded: low hygroscopicity | weight change through the sorption/desorption cycle ([7]; DVS, no hysteresis): ~0.3% | form of material recovered from the DVS experiment by XRPD [7]: same as the starting material | DSC exotherm due to decomposition, onset [1]: about 207 °C

COCc1nnc2n1Cc1c(C#Cc3cnc(OC)s3)ncn1-c1ccc(Cl)cc1-2 [Form B]
relative thermodynamic stability [3]: metastable relative to Form A | DSC exotherm due to decomposition, onset [1]: about 190 °C

COCc1nnc2n1Cc1c(C#Cc3cnc(OC)s3)ncn1-c1ccc(Cl)cc1-2 [Form E]
relative thermodynamic stability [3]: metastable relative to Form A | DSC exotherm due to decomposition, onset [1]: ~201 °C

COCc1nnc2n1Cc1c(C#Cc3cnc(OC)s3)ncn1-c1ccc(Cl)cc1-2 [Form F]
hygroscopicity (DVS isotherm) [7]: limited hygroscopicity | weight gain ([7]; DVS, from 5-95% RH): 1.8% | weight loss upon desorption ([7]; DVS, significant hysteresis): 1.5% | form of material recovered from the DVS experiment by XRPD [7]: still Form F | DSC exotherms following dehydration endotherm (decomposition upon dehydration) [1]: above 120 °C | stability under vacuum ([2]; 5 days under vacuum at ambient temperature): unchanged | stability upon exposure to 100° C. ([2]; exposure to 100° C. (several minutes, XRPD)): dehydrate; also recorded: loss of crystallinity
